Patent EP0979818A1, “BENZOIC ACID COMPOUNDS AND MEDICINAL USE THEREOF” (YOSHITOMI PHARMACEUTICAL INDUSTRIES, LTD., priority 1997, dated 1998)
Read-outs that look alike come from different tables or passages of the source.

Experiments:
[1] = target: isolated guinea pig ascending colon (Cavia porcellus, UniProt O70528); assay: contraction of the isolated guinea pig ascending colon; format: cell-based
Procedure: Male Hartley guinea pig was killed by a blow, ascending colon was taken from it and longitudinal muscle was separated. About 3 cm longitudinal muscle segment was suspended in 10 ml of a Tyrode solution with the load of 1 g. Tyrode solution contained methysergide (1 µM) and granisetron (1 µM) to inhibit responses mediated by 5-HT1, 5-HT2 and 5-HT3 receptors. Tyrode solution was maintained at 37°C and ventilated with a mixed gas of O2 (95%) and CO2 (5%). The contraction was isotonically measured via isotonic transducer. After an equilibrium period of about 30 minutes, the contraction by methacholine (30 µM) was measured two times at 15 minute intervals. Twenty minutes later, Y-36912 was added into the bath and the contraction was measured in the presence of a solvent or 1-methyl-1H-indole-3-carboxylic acid · 1-(2-methylsulfonylaminoethyl)-pyperidin-4-ylmethyl ester (hereinafter to be referred to as GR113808, 10nM), which is 5-HT4 receptor antagonist. The time of pretreatment with the solvent or GR113808 was 10 minutes. To avoid tachyphylaxis, the contraction induced by one concentration per preparation was measured. The contraction in the presence of a solvent or GR113803 was measured using a preparation from the same animal. The contraction effect of Y-36912 was measured as a percentage of responses to the second contraction by methacholine. […]

SD rats [2] = assay: toxicity testing, single oral dose in rats; format: in vivo; conditions: four female SD rats, 750 mg/kg
Procedure: There was no death when four female SD rats were administered orally with Y-36912 at a dose of 750 mg/kg.

guinea pig = assay: promotion of transit in large intestine in guinea pig; format: in vivo; conditions: guinea pigs; for Ratio of transit in large intestine (%): Evans blue, 1 hour, Mean ± S.E.; for Promotion (%) of transit in large intestine: versus vehicle
Procedure: Male Hartley guinea pigs were subjected to laparotomy under ether anesthesia, and a silicone tube was inserted into the beginning of ascending colon and fixed there. The other end was passed under the skin to be exposed from the back and sutured. At day 5 postoperation, Y-36912 was administered orally and Evans blue solution was injected into the colon through the silicon tube. One hour later, the large intestine was removed, and the entire length of the large intestine and the length of the transit of the Evans blue solution were measured. Evans blue transit ratio relative to the entire length of the large intestine (100 %) was calculated.

SD rats [3] = assay: toxicity testing, repeated administration for 10 days in rats; format: in vivo; conditions: female and male SD rats, repeated 30 mg/kg for 10 days
dogs = assay: promotion of postprandial gastrointestinal motility in dogs without anesthesia; format: in vivo; conditions: for Difference of motility index (g·min) Colon / Difference of motility index (g·min) Stomach: Mean ± S.E.; for minimal effective dose: Canis lupus familiaris, iv
Procedure: According to the method of Ito et al. [Journal of Smooth Muscle Research, vol. 13, pp. 33-43 (1976)], male and female adult mongrel dogs were subjected to laparotomy under pentobarbital anesthesia, and force transducer was sutured to the serous membrane of various sites of gastrointestinal tract in the direction of circular muscle. After about two weeks' recovery period, postprandial gastrointestinal motility was measured in vigilance. The results are shown in Table 3 as the difference in motility index (g·min) between before and after administration of Y-36912. Y-36912 was administered intravenously.

[4] = evaluation of bioavailability in rats; format: in vivo; conditions: rat, po; female SD rats, 3 mg/kg i.v. and 30 mg/kg p.o., from plasma AUC
Procedure: Female SD rats (4 per group) were administered with 3 mg/kg (i.v.) and 30 mg/kg (p.o.) of Y-36912. The blood was taken with the passage of time, and the concentration of the drug in plasma was measured with high performance liquid chromatography. […] In the formula, AUC means area under the plasma concentration-time curve. (AUC by oral administration)/(AUC by intravenous administration)X(Dose of intravenous administration)/(Dose of oral administration)X 100(%) [formula]

5-HT4 receptor = target: T1, 5-HT4 receptor (Cavia porcellus, UniProt O70528); assay: 5-HT4 receptor binding test; conditions: guinea pig striatum crude synapse membrane, [3H]GR113808 0.1 nM, 37°C; read-out: Affinity for receptor (Ki value, nM) 5-HT4
T1 construct: Crude synapse membrane sample was prepared from guinea pig striatum; from tissue; host or cells: guinea pig striatum, crude synaptic membranes
T1 sequence (O70528 whole entry): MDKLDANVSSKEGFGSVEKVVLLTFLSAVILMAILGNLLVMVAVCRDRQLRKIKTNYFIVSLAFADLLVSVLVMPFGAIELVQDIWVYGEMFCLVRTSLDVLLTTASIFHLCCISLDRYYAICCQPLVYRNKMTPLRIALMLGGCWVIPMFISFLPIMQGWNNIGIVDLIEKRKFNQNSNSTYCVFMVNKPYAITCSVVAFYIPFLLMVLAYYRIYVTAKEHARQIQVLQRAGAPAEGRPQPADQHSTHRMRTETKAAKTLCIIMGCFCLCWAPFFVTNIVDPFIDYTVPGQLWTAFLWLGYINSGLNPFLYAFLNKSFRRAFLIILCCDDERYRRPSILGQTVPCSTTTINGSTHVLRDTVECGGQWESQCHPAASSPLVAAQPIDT
Procedure: According to the method of C.J. Grossman et al. [British Journal of Pharmacology, vol. 109, pp. 618-624 (1993)1, a 5-HT4 receptor binding test was run using, as a tracer ligand, 1-methyl-1H-indole-3-carboxylic acid · 1-(2-methylsulfonylaminoethyl)-piperidin-4-ylmethyl ester substituted by tritium (hereinafter to be referred to as [^3H]GR113808). Crude synapse membrane sample was prepared from guinea pig striatum, suspended in 50 mM HEPES buffer (pH 7.4) and used for testing. Y-36912 having several different concentrations and [^3H]GR113808 (final concentration 0.1 nM) were added to this suspension and allowed to react at 37°C. Thirty minutes later, the reaction mixture was filtered by suction with cell harvester. The filter was washed with 50 mM HEPES buffer, and the radioactivity on the filter was counted by liquid scintillation counter. The non-specific binding was determined in the presence of 1µM GR113808. The concentration of Y-36912 necessary for 50% inhibition (IC50) was determined from graph and convened to binding inhibition constant (Ki value).

5-HT3 receptor = target: T2, 5-HT3 receptor (Rattus norvegicus, UniProt P35563); assay: 5-HT3 receptor binding test; conditions: rat cerebral cortex crude synapse membrane, [3H]granisetron 1.0 nM, 25°C; value marked * is IC50, not Ki; read-out: Affinity for receptor 5-HT3 (* shows IC50)
T2 construct: Crude synapse membrane sample was prepared from rat cerebral cortex; from tissue; host or cells: rat cerebral cortex, crude synaptic membranes
T2 sequence (P35563 24-483): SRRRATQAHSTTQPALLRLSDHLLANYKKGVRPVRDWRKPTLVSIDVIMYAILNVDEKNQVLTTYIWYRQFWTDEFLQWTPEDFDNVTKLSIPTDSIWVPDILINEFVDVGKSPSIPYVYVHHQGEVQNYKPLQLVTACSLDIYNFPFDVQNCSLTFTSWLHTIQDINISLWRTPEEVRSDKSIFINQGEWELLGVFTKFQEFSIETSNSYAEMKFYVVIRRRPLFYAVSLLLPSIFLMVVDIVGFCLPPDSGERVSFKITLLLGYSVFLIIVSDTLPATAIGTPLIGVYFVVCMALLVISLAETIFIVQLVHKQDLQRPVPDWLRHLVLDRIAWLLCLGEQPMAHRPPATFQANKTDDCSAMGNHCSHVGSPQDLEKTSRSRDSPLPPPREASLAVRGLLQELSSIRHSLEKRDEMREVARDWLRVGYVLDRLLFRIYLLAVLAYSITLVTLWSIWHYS
Procedure: According to the method of Nelson and Thomas [Biochemical Pharmacology, vol. 38, pp. 1693-1695 (1989)], a 5-HT3 receptor binding test was run using, as a tracer ligand, endo-1-methyl-N-(9-methyl-9-azabicyclo[3.3.1]non-3-yl)-1H-indazole-3-carboxamide substituted by tritium (hereinafter to be referred to as [^3H]granisetron). Crude synapse membrane sample was prepared from rat cerebral cortex, suspended in 50 mM HEPES buffer (pH 7.4) and used for testing. Y-36912 having several different concentrations and [^3H]granisetron (final concentration 1.0 nM) were added to this suspension and allowed to react at 25°C. Thirty minutes later, the reaction mixture was filtered by suction with cell harvester. The filter was washed with 50 mM Tris buffer (pH 7.4), and the radioactivity on the filter was counted using liquid scintillation counter or β-plate. The non-specific binding was determined in the presence of 1 µM tropisetron. The concentration of Y-36912 necessary for 50% inhibition (IC50) was determined from graph and converted to binding inhibition constant (Ki value).

rats = assay: promotion of gastric emptying in rats; format: in vivo; conditions: for Number of pellets (remaining in stomach): female Wistar rats, 1 hour after pellets, Mean ± S.E.; for Promotion (%) of gastric emptying: versus vehicle
Description: Barium pellets (ca. 1 mm diameter) coated with polystyrene was intragastrically administered to female Wistar rats. One hour later, stomach was removed, and the remaining pellets were counted. Y-36912 was orally administered one hour before administration of the pellets.

mice = assay: stimulation of defecation in mice; format: in vivo; conditions: for Number (of feces) / Wet weight (of feces): 2 hours, Mean ± S.E.; for Promotion(%) of number of feces / Promotion(%) of wet weight of feces: versus vehicle
Procedure: Male ICR mice were subcutaneously administered with Y-36912 after adaptation to experimental surroundings for thirty minutes. The number and wet weight of feces excreted in 2 hours from immediately after administration were measured.

[5] = measurement of absorption by small intestine in rat; format: in vivo; conditions: small intestine loop, 5 mg/kg, male SD rats, intestinal loop, 5 mg/10 ml in 5% glucose, 10 ml/kg, read-out: absorption (absorption ratio by small intestine loop)
Procedure: Male SD rats (3 per group) fasted overnight were subjected to laparotomy under ether anesthesia, and the upper part of small intestine was ligated to form a loop (15-20 cm in length). The drug was dissolved in 5% glucose to the drug concentration of 5 mg/10 ml, and 10 ml/kg thereof was injected into the loop. At 2 hours from the drug injection, the loop was removed, washed with 100 ml of 0.1 N hydrochloric acid-methanol (3:7), and the drug concentration was determined by high performance liquid chromatography. The absorption ratio was calculated according to the following formula. The absorption of Y-36912 was 60.5±13.7 % (Injected amount of drug (mg) - drug concentration in loop (mg/ml) x 100 (ml))/(Injected amount of drug (mg))x 100(%) [formula]

Chain of isolated guinea pig ascending colon (O70528 whole entry): as the sequence (O70528 whole entry) above

Cn1cc(C(=O)OCC2CCN(CCNS(C)(=O)=O)CC2)c2ccccc21 [GR113808, 1-methyl-1H-indole-3-carboxylic acid · 1-(2-methylsulfonylaminoethyl)-pyperidin-4-ylmethyl ester, reference compound]
pKB, antagonism of GR113808 to contraction of Y-36912 ([1]; GR113808 10 nM, 10 minutes pretreatment, agonist Y-36912): 8.8

COc1cc(N)c(Cl)cc1C(=O)NCC1CCN(CCCS(=O)(=O)Cc2ccccc2)CC1 [Y-36912, 4-amino-5-chloro-2-methoxy-N-((1-(3-benzylsulfonylpropyl)piperidin-4-yl)methyl)benzamide]
death (SD rats [2]): no death | Ratio of transit in large intestine (%) (guinea pig; 0.1 mg/kg p.o.): 57.0 ± 7.0% | Promotion (%) of transit in large intestine (guinea pig; 0.1 mg/kg p.o.): 9% | Ratio of transit in large intestine (%) (guinea pig; 0.3 mg/kg p.o.): 70.9 ± 7.9% | Promotion (%) of transit in large intestine (guinea pig; 0.3 mg/kg p.o.): 35% | Ratio of transit in large intestine (%) (guinea pig; 1 mg/kg p.o.): 77.2 ± 6.4 % | Promotion (%) of transit in large intestine (guinea pig; 1 mg/kg p.o.): 47% | Ratio of transit in large intestine (%) (guinea pig; 3 mg/kg p.o.): 80.1 ± 5.8 % | Promotion (%) of transit in large intestine (guinea pig; 3 mg/kg p.o.): 53% | minimal effective dose (guinea pig; Cavia porcellus, po, 1 h, p.o., read-out: dose that significantly accelerated transit in large intestine): ≥ 1 mg/kg | death (SD rats [3]): no animal died | Difference of motility index (g·min) Colon (dogs; 0.01 mg/kg i.v.): 27.1 ± 6.8 g·min | Difference of motility index (g·min) Stomach (dogs; 0.01 mg/kg i.v.): 41.3 ± 35.4 g·min | Difference of motility index (g·min) Colon (dogs; 0.03 mg/kg i.v.): 28.3 ± 8.5 g·min | Difference of motility index (g·min) Stomach (dogs; 0.03 mg/kg i.v.): 65.1 ± 38.1 g·min | Difference of motility index (g·min) Colon (dogs; 0.1 mg/kg i.v.): 58.2 ± 11.9 g·min | Difference of motility index (g·min) Stomach (dogs; 0.1 mg/kg i.v.): 60.5 ± 18.1 g·min | minimal effective dose (dogs; read-out: dose that increased colonic (lower gastrointestinal) motility): 0.1 mg/kg | minimal effective dose (dogs; read-out: dose that increased gastric (upper gastrointestinal) motility): ≥ 0.03 mg/kg | bioavailability [4]: 85.2% | Ki (5-HT4 receptor): 1.5 nM | IC50 (5-HT3 receptor): > 1000 nM | Number of pellets (remaining in stomach) (rats; 0.1 mg/kg p.o.): 21.1 ± 2.8 | Promotion (%) of gastric emptying (rats; 0.1 mg/kg p.o., rats): 25% | Number of pellets (remaining in stomach) (rats; 0.3 mg/kg p.o.): 18.8 ± 3.0 | Promotion (%) of gastric emptying (rats; 0.3 mg/kg p.o., rats): 33% | Number of pellets (remaining in stomach) (rats; 1 mg/kg p.o.): 19.5 ± 3.1 | Promotion (%) of gastric emptying (rats; 1 mg/kg p.o., rats): 31% | Number of pellets (remaining in stomach) (rats; 3 mg/kg p.o.): 13.4 ± 1.8 | Promotion (%) of gastric emptying (rats; 3 mg/kg p.o., rats): 52% | effect on gastric emptying (rats; doses of 0.3 mg/kg and 3 mg/kg p.o., rats): significantly accelerated gastric emptying | Number (of feces) (mice; 0.03 mg/kg s.c): 5.4 ± 0.7 | Wet weight (of feces) (mice; 0.03 mg/kg s.c): 78.2 ± 8.6 | Promotion(%) of number of feces (mice; 0.03 mg/kg s.c): 59% | Promotion(%) of wet weight of feces (mice; 0.03 mg/kg s.c): 38% | Number (of feces) (mice; 0.1 mg/kg s.c): 6.5 ± 0.8 | Wet weight (of feces) (mice; 0.1 mg/kg s.c): 95.7 ± 10.6 | Promotion(%) of number of feces (mice; 0.1 mg/kg s.c): 91% | Promotion(%) of wet weight of feces (mice; 0.1 mg/kg s.c): 69% | Number (of feces) (mice; 0.3 mg/kg s.c): 6.2 ± 0.8 | Wet weight (of feces) (mice; 0.3 mg/kg s.c): 94.7 ± 10.3 | Promotion(%) of number of feces (mice; 0.3 mg/kg s.c): 82% | Promotion(%) of wet weight of feces (mice; 0.3 mg/kg s.c): 68% | Number (of feces) (mice; 1 mg/kg s.c): 5.4 ± 0.5 | Wet weight (of feces) (mice; 1 mg/kg s.c): 97.7 ± 12.5 | Promotion(%) of number of feces (mice; 1 mg/kg s.c): 59% | Promotion(%) of wet weight of feces (mice; 1 mg/kg s.c): 73% | minimal effective dose (mice; Mus musculus, sc, 2 h, s.c., read-out: dose showing significant promotion of defecation): ≥ 0.1 mg/kg | Fa at 2 h [5]: 60.5 ± 13.7% | EC50 ([1]; longitudinal muscle, methysergide 1 µM and granisetron 1 µM present, relative to methacholine 30 µM contraction, read-out: Contraction effect on the isolated ascending colon (EC50 value)): 10.8 nM
